Data taken from US20080194585A1, “Fungicidal Pyrazine Derivatives” (priority 2005, published 2008).
Marks after values point to notes of the source that are not given here.

Columns and labels:
Pythium aphanidermatum = experiment: Test A: bluegrass pythium blight, preventive spray on bluegrass seedlings
Septoria nodorum = experiment: Test H: wheat glum blotch, preventive spray on wheat seedlings
Protocol: (the causal agent of wheat glum blotch) and incubated in a saturated atmosphere at 20° C. for 48 h, and then moved to a growth chamber at 22° C. for 5 days, after which disease ratings were made.

Sclerotinia sclerotiorum = experiment: Test C: cucumber white mold, preventive spray on cucumber seedlings
Botrytis cinerea = experiment: Test E: tomato botrytis, preventive spray on tomato seedlings
[1] = tested on: Erysiphe graminis f. sp. tritici; experiment: Test L: wheat powdery mildew, preventive spray on wheat seedlings
Phytophthora infestans = experiment: whole plant or invertebrate; format: in vivo
Septoria tritici = experiment: Test J: wheat leaf blotch, preventive spray on wheat seedlings; format: in vivo
Excerpt: A dash (-) indicates no test results.

[2] = tested on: Colletotrichum orbiculare; experiment: Test B: cucumber Colletotrichum anthracnose, preventive spray on cucumber seedlings
Rhizoctonia oryzae = experiment: Test G: turf brown patch, preventive spray on creeping bent grass seedlings
Protocol: (the causal agent of turf brown patch) and incubated in a saturated atmosphere at 27° C. for 24 h, and then moved to a growth chamber at 27° C. for 5 days, after which disease ratings were made.

[3] = tested on: Puccinia recondita f. sp. tritici; experiment: Test K: wheat leaf rust, preventive spray on wheat seedlings
Plasmopara viticola = experiment: Test D: grape downy mildew, spray after inoculation of grape seedlings; format: in vivo
Excerpt: Upon removal, disease ratings were made. […] A dash (-) indicates no test results.

[4] = 40 ppm (marked *), 100 = 100% disease control, 0 = no control

Structure (SMILES)	Test A disease control rating (Pythium aphanidermatum; 40 ppm (*))	Test H disease control rating (Septoria nodorum; 40 ppm (*))	Test C disease control rating (Sclerotinia sclerotiorum; 40 ppm (*))	Test E disease control rating (Botrytis cinerea; 40 ppm (*))	Test L disease control rating ([1]; 40 ppm (*))	Test F disease control rating (Phytophthora infestans; 40 ppm (*))	Test J disease control rating (Septoria tritici; 40 ppm (*))	Test B disease control rating ([2]; 40 ppm (*))	Test G disease control rating (Rhizoctonia oryzae; 40 ppm (*))	Test K disease control rating ([3]; 40 ppm (*))	Test D disease control rating (Plasmopara viticola; 40 ppm (*))	other results
CC1CCCCC1n1c(-c2c(F)cccc2F)c(Cl)nc(-n2cccn2)c1=O (stereo not shown) [compound 224]	0* %	99* %	0* %	100* %	83* %	0* %	100* %	66* %	92* %	94* %	0* %	
CC1CCCCC1n1c(-c2c(F)cccc2F)c(Cl)nc(-n2cncn2)c1=O (stereo not shown) [compound 225]	0* %	73* %	0* %	100* %	0* %	0* %	100* %	0* %	0* %	73* %	0* %	
CCCCn1c(-c2c(F)cc(F)cc2F)c(Cl)nc(N2CCC=N2)c1=O [compound 226]	0* %	95* %	0* %	0* %	46* %	0* %	100* %	0* %	0* %	82* %	0* %	
CCCCn1c(-c2c(F)cc(F)cc2F)c(Cl)nc(-n2cccn2)c1=O [compound 227]	0* %	100* %	0* %	100* %	99* %	0* %	100* %	96* %	100* %	100* %	96* %	
CCCCn1c(-c2c(F)cc(F)cc2F)c(Cl)nc(-n2ccc(C)n2)c1=O [compound 228]	0* %	100* %	0* %	100* %	99* %	0* %	99* %	98* %	99* %	99* %	77* %	
CCCCn1c(-c2c(F)cc(F)cc2F)c(Cl)nc(-n2cncn2)c1=O [compound 229]	0* %	82* %	0* %	95* %	88* %	0* %	57* %	0* %	16* %	17* %	0* %	
CCCCn1c(-c2c(F)cc(F)cc2F)c(Cl)nc(-n2nccc2C)c1=O [compound 239]	0* %	0* %	0* %	0* %	0* %	0* %	19* %	0* %	0* %	0* %	0* %	
CCCCn1c(-c2c(F)cc(F)cc2F)c(Cl)nc(-c2ccccn2)c1=O [compound 240]	0* %	78* %	0* %	100* %	98* %	0* %	93* %	9* %	0* %	67* %	0* %	
Cc1ccn(-c2nc(Cl)c(-c3c(F)cccc3F)n(CC(C)C)c2=O)n1 [compound 241]	0* %	95* %	0* %	100* %	93* %	0* %	100* %	92* %	85* %	100* %	33* %	
Cc1ccn(-c2nc(C)c(-c3c(F)cccc3F)n(CC(C)C)c2=O)n1 [compound 243]	0* %	0* %	0* %	100* %	98* %	0* %	86* %	0* %	68* %	45* %	0* %	
CC(C)Cn1c(-c2cccnc2Cl)c(Cl)nc(-n2cccn2)c1=O [compound 244]	0* %	0* %	0* %	42* %	0* %	0* %	9* %	0* %	0* %	8* %	31* %	
COc1cccc(-c2c(Cl)nc(-n3cncn3)c(=O)n2CC(C)C)c1 [compound 245]	0* %	0* %	0* %	0* %	0* %	0* %	46* %	0* %	0* %	0* %	0* %	
COc1cccc(-c2c(Cl)nc(-n3cccn3)c(=O)n2CC(C)C)c1 [compound 246]	0* %	0* %	0* %	99* %	78* %	0* %	26* %	0* %	0* %	0* %		Test D disease control rating (Plasmopara viticola; 200 ppm): 9%
Cc1cccc(-c2c(Cl)nc(-n3cncn3)c(=O)n2CC(C)C)c1 [compound 247]	0* %	0* %	0* %	0* %	0* %	0* %	35* %	0* %	0* %	0* %	0* %	
Cc1cccc(-c2c(Cl)nc(-n3cccn3)c(=O)n2CC(C)C)c1 [compound 248]	0* %	0* %	0* %	66* %	0* %	0* %	44* %	0* %	0* %	0* %	0* %	
CC(C)Cn1c(-c2cccc(C#N)c2)c(Cl)nc(-n2cncn2)c1=O [compound 249]												Test A disease control rating (Pythium aphanidermatum; [4]): 0* %; Test H disease control rating (Septoria nodorum; [4]): 0* %; Test C disease control rating (Sclerotinia sclerotiorum; [4]): 0* %; Test E disease control rating (Botrytis cinerea; [4]): 0* %; Test L disease control rating [1, 4]: 0* %; Test F disease control rating (Phytophthora infestans; [4]): 0* %; Test J disease control rating (Septoria tritici; [4]): 26* %; Test B disease control rating [2, 4]: 0* %; Test G disease control rating (Rhizoctonia oryzae; [4]): 0* %; Test K disease control rating [3, 4]: 0* %; Test D disease control rating (Plasmopara viticola; [4]): 0* %
CC(C)Cn1c(-c2cccc(C#N)c2)c(Cl)nc(-n2cccn2)c1=O [compound 250]												Test A disease control rating (Pythium aphanidermatum; [4]): 0* %; Test H disease control rating (Septoria nodorum; [4]): 0* %; Test C disease control rating (Sclerotinia sclerotiorum; [4]): 0* %; Test E disease control rating (Botrytis cinerea; [4]): 0* %; Test L disease control rating [1, 4]: 0* %; Test F disease control rating (Phytophthora infestans; [4]): 0* %; Test J disease control rating (Septoria tritici; [4]): 30* %; Test B disease control rating [2, 4]: 0* %; Test G disease control rating (Rhizoctonia oryzae; [4]): 0* %; Test K disease control rating [3, 4]: 0* %; Test D disease control rating (Plasmopara viticola; [4]): 0* %
